From patent US11919858B2, “Aminonapthoquinone compounds and pharmaceutical composition for blocking ubiquitination-proteasome system in diseases” (Calgent Biotechnology Co., Ltd., priority 2015, dated 2024)
Read-outs that look alike come from different tables or passages of the source.

Tested on: HCT116 human colorectal adenocarcinoma
Conditions: for Logrank Significance: compared to Group 1
Description: MPT0L056 was used to evaluate for activity against the HCT116 human colorectal adenocarcinoma.
However, MPT0E028 was administered orally (p.o.) in 1.0% CMC and 0.5% Tween 80 and given dose at 25 mg/kg daily to end schedule.
Each animal was euthanized when the tumors reached the predetermined endpoint size of 1,000 mm^3. The time to endpoint (TTE) for each mouse was calculated by the following equation:
[formula] where TTE is expressed in days, endpoint volume is in mm^3, b is the intercept, and m is the slope of the line obtained by linear regression of a log-transformed tumor growth data set. The data set is comprised of the first observation that exceeded the study endpoint volume and the three consecutive observations that immediately preceded the attainment of the endpoint volume. The calculated TTE is usually less than the day on which an animal is euthanized for tumor size. […] An animal classified as having died from treatment-related (TR) causes or non-treatment-related metastasis (NTRm) causes was assigned a TTE value equal to the day of death. An animal classified as having died from non-treatment-related (NTR) causes was excluded from TTE calculations.
Treatment efficacy was determined from tumor growth delay (TGD), which is defined as the increase in the median TTE for a treatment group compared to the control group: TGD=T−C, expressed in days, or as a percentage of the median TTE of the control group:
[formula] where: • T=median TTE for a treatment group, • C=median TTE for control Group 1.
Treatment efficacy was also determined from the tumor volumes of animals remaining in the study on the last day, and from the number of regression responses. The MTV(n) is defined as the median tumor volume on D59 in the number of animals remaining, n, whose tumors have not attained the endpoint volume.
Treatment may cause a partial regression (PR) or a complete regression (CR) of the tumor in an animal. […] An animal with a CR at the termination of a study is additionally classified as a tumor-free survivor (TFS).
Animals were weighed daily for the first five days, then twice weekly until the completion of the study. The mice were examined frequently for overt signs of any adverse, drug-related side effects. Acceptable toxicity for the MTD of cancer drugs is defined as a group mean BW loss of 20% or less during the test, and not more than one TR death among ten animals. A death is classified as TR if there is evidence of treatment side effects from clinical signs and/or necropsy or from unknown causes during dosing period or within 10 days of the last dose. A death is classified as NTR if there is no evidence that the death was related to treatment side effects.
The logrank test was used to determine the statistical significance of the difference between the TTE values of two groups, except any NTR deaths. Statistical and graphical analyses were performed with Prism 3.03 (GraphPad) for Windows. The two-tailed statistical analyses were conducted at P=0.05. Kaplan-Meier plots show the percentage of animals remaining in the study versus time. The Kaplan-Meier plots use the same data set as the log rank test. The tumor growth curves show the group median tumor volume, on a log scale as a function of time.

[1] = Group 1 vs 4: MPT0L056 100 mg/kg
[2] = Group 4: MPT0L056 100 mg/kg po qd to endpoint
[3] = Group 5: MPT0L056 50 mg/kg po qd to endpoint
[4] = Group 7: MPT0L056 100 mg/kg po qd + MPT0E028 25 mg/kg po qd to endpoint
[5] = Group 8: MPT0L056 50 mg/kg po qd + MPT0E028 25 mg/kg po qd to endpoint

`O=C(Nc1ccncc1)c1ccc(CNC2=C(Cl)C(=O)c3ccccc3C2=O)cc1` [MPT0L056] was tested, and the “Hazard Ratio” value [1] was 4.135, the “Median survival” value [1] was 48.55 and the “Median survival Ratio” value [1] was 0.4876. For the same compound, the “Hazard Ratio” value (Group 1 vs 5: 50 mg/kg) was 1.959, the “Median survival” value (Group 1 vs 5: 50 mg/kg) was 29.95 and the “Median survival Ratio” value (Group 1 vs 5: 50 mg/kg) was 0.7579. For the same compound, the “Day of Max % BW Loss” value [2] was 6 days, the “MTV (n) Day 59” value [2] was 160 mm^3 and the “Max % BW Loss” value [2] was −2.3%. The “Median TTE” value [2] was 48.5 days, the “No. of NTR” value [2] was 0 and the “No. of TR” value [2] was 0. For the same compound, the T-C [2] was 25.8 days, the “antitumor activity (logrank analysis)” value [2] was “produced significant antitumor activity” and the “% TGD” value (Group 4: MPT0L056 100 mg/kg po qd to endpoint, 100 mg/kg) was 114%. For the same compound, the “Logrank Significance” value [2] was “** (** = P < 0.01)”, the “Day of Max % BW Loss” value [3] was 5 days and the “MTV (n) Day 59” value [3] was 975 mm^3. The “Max % BW Loss” value [3] was −3.8%, the “Median TTE” value [3] was 30.0 days and the “No. of LTTFS” value [3] was 0. For the same compound, the “No. of NTR” value [3] was 2, the “No. of TR” value [3] was 0 and the T-C [3] was 7.3 days. For the same compound, the “antitumor activity (logrank analysis)” value [3] was “but not 50 mg/kg (P=0.2087), produced significant antitumor activity”, the “% TGD” value (Group 5: MPT0L056 50 mg/kg po qd to endpoint, 50 mg/kg) was 32% and the “% TGD” value [4] was 50%. The “Day of Max % BW Loss” value [4] was 5 days, the “Max % BW Loss” value [4] was −8.4% and the “Median TTE” value [4] was 34.0 days. For the same compound, the “No. of CR” value [4] was 0, the “No. of LTTFS” value [4] was 0 and the “No. of NTR” value [4] was 0. For the same compound, the “No. of PR” value [4] was 0, the “No. of TR” value [4] was 0 and the T-C [4] was 11.3 days. The “% TGD” value [5] was 100%, the “Day of Max % BW Loss” value [5] was 3 days and the “Max % BW Loss” value [5] was −9.5%. For the same compound, the “Median TTE” value [5] was 45.3 days, the “No. of LTTFS” value [5] was 0 and the T-C [5] was 22.6 days. The “synergistic effect of antitumor activity (logrank analysis)” value [5] was “significant synergistic effect of antitumor activity” and the “Logrank Significance” value [5] was “** (** = P < 0.01)”.
